From ChEMBL document CHEMBL5360577, “Multicomponent Petasis reaction for the identification of pyrazine based multi-target directed anti-Alzheimer's agents: In-silico design, synthesis, and characterization” (Eur J Med Chem, 2023)
The source made the active and inactive calls. The calls are words filed in the database; no cut-off is given here.

Assays:
[1] = target: Amyloid-beta precursor protein (Homo sapiens) (UniProt P05067); experiment: Inhibition of amyloid beta (unknown origin) aggregation at 10 uM relative to control
Chain of Amyloid-beta precursor protein (Homo sapiens) (P05067 whole entry): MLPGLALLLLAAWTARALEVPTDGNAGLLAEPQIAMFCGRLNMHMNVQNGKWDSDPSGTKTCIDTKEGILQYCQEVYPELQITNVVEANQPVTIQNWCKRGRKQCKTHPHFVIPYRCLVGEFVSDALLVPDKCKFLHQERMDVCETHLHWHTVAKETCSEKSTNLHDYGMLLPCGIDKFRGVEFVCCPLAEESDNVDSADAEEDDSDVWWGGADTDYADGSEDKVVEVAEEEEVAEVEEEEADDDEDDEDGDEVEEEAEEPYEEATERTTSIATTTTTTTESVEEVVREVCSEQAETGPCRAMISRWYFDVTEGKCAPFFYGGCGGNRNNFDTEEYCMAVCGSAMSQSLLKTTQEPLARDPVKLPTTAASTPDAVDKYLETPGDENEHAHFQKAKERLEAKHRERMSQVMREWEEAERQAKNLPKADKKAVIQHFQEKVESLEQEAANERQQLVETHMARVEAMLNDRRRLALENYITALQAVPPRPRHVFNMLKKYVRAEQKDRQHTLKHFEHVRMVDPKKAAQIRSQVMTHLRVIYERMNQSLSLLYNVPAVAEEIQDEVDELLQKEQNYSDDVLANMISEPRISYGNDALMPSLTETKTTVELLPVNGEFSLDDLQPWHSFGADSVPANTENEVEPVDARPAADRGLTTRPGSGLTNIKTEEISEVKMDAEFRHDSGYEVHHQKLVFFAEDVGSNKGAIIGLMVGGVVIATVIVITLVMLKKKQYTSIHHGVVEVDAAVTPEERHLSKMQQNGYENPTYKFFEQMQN

[2] = target: T1, Microtubule-associated protein tau (Homo sapiens, UniProt P10636); experiment: Inhibition of tau (unknown origin) aggregation at 10 uM relative to control
T1 sequence (P10636 whole entry): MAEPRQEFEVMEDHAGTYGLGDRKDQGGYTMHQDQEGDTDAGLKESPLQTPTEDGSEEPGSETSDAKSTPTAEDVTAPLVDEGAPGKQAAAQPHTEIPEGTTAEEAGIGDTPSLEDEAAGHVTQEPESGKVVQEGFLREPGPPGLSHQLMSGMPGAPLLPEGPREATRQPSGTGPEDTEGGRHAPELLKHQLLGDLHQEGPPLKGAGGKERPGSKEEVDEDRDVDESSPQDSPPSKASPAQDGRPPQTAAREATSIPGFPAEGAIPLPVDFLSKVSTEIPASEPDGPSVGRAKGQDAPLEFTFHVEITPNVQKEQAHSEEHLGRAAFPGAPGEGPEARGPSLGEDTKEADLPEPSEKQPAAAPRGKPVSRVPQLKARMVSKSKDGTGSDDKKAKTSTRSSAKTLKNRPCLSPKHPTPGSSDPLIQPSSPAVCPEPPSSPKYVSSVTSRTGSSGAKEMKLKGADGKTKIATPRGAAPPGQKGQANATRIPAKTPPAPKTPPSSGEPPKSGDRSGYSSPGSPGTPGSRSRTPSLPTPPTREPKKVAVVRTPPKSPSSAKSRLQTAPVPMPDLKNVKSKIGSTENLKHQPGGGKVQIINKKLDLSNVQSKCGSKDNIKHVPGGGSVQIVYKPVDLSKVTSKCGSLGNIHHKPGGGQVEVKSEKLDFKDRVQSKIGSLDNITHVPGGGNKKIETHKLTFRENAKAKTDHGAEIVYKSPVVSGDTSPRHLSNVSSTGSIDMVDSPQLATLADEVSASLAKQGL

Acetylcholinesterase [3] = target: T2, Acetylcholinesterase (Homo sapiens, UniProt P22303); experiment: Inhibition of human AChE using acetylthiocholine as substrate at 10 uM by Ellman's method
T2 sequence (P22303 whole entry): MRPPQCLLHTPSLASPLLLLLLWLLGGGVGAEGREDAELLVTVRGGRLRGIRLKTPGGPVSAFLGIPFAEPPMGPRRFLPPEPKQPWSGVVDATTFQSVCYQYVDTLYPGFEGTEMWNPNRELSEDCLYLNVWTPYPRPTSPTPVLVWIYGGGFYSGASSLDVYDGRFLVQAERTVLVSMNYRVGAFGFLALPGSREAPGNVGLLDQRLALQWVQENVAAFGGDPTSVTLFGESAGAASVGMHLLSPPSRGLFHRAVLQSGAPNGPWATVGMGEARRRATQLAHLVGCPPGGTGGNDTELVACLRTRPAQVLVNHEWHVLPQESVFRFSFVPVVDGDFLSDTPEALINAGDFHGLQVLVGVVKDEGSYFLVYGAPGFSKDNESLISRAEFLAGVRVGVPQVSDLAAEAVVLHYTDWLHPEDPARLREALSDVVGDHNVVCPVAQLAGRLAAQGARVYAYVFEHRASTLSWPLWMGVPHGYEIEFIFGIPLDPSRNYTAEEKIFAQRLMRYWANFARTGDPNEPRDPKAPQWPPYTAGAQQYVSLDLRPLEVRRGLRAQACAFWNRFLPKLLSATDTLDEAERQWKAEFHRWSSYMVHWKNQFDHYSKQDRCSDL

Acetylcholinesterase [4] = target: T2, Acetylcholinesterase; experiment: Inhibition of human AChE using acetylthiocholine as substrate by Ellman's method
[5] = target: T1, Microtubule-associated protein tau; experiment: Inhibition of cellular tau (unknown origin) aggregation at 10 uM incubated for 2 hrs by FRET assay
[6] = target: T1, Microtubule-associated protein tau; experiment: Inhibition of cellular tau (unknown origin) aggregation incubated for 2 hrs by FRET assay
SH-SY5Y = experiment: Neuroprotective activity in human SH-SY5Y cell model transfected with wild-type tau assessed as cell viability at 1 to 10 uM by MTT assay; type: functional, cell-based; conditions: dose 1-10 µM
Acetylcholinesterase [7] = target: T2, Acetylcholinesterase; experiment: Inhibition of human AChE using acetylthiocholine as substrate at 10 uM by Ellman's method relative to control
Cholinesterase = Cholinesterase (Homo sapiens, UniProt P06276); experiment: Inhibition of human BuChE by Ellman's method
Chain of Cholinesterase (P06276 whole entry): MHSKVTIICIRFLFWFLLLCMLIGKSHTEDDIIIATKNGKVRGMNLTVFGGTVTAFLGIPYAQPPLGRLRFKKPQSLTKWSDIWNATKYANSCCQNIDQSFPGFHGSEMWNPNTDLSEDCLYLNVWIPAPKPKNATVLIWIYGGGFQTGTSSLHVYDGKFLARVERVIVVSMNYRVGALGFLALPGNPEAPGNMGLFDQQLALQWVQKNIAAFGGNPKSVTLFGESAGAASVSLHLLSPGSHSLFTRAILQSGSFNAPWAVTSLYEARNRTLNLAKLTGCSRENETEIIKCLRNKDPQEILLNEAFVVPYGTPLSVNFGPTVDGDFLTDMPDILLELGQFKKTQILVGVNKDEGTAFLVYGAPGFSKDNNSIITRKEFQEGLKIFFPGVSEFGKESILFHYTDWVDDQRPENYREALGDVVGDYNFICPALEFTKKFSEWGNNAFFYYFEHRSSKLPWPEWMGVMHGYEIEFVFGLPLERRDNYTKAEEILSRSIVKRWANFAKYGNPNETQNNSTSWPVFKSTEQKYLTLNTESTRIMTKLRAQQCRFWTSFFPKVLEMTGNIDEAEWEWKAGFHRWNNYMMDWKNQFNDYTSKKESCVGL

Acetylcholinesterase [8] = target: T2, Acetylcholinesterase; experiment: Inhibition of human AChE by Ellman's method
[9] = target: T3, Amine oxidase [flavin-containing] B (Homo sapiens, UniProt P27338); experiment: Inhibition of human MAO-B by fluorometric assay
T3 sequence (P27338 whole entry): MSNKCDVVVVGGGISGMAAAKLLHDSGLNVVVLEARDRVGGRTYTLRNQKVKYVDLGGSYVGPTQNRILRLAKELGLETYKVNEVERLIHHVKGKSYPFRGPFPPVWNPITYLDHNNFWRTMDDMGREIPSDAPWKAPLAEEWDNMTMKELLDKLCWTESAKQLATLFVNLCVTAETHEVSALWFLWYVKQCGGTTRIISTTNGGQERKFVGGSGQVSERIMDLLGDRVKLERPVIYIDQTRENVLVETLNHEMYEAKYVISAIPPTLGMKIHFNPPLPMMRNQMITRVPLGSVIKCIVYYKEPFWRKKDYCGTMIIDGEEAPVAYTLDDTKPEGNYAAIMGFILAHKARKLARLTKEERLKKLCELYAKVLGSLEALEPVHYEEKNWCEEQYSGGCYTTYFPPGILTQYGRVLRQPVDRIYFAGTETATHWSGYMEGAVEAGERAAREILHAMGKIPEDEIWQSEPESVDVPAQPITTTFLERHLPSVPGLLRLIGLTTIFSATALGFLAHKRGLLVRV

Structure (SMILES): OC(CNCCC(c1ccccc1)c1ccccc1)CNCc1ccccc1 (configuration not stated)
- inhibition [1]: 80%
- inhibition [2]: 68%

Structure (SMILES): COc1cccc(C(c2ccc(F)cc2)N2CCN(c3cnccn3)CC2)c1O (configuration not stated)
- inhibition (Acetylcholinesterase [3]): Active
- IC50 (Acetylcholinesterase [4]): 710 nM
- inhibition [5]: Active
- EC50 [6]: 2210 nM
- Activity (SH-SY5Y): Active

Structure (SMILES): Oc1ccccc1C(c1ccc(C(F)(F)F)cc1)N1CCN(c2cnccn2)CC1 (configuration not stated)
- inhibition (Acetylcholinesterase [3]): Active
- inhibition (Acetylcholinesterase [7]): < 40%

Structure (SMILES): Cc1ccc(C(c2ccccc2O)N2CCN(c3cnccn3)CC2)cc1 (configuration not stated)
- inhibition (Acetylcholinesterase [3]): Active
- IC50 (Acetylcholinesterase [4]): 1090 nM
- inhibition [5]: Active
- EC50 [6]: 2710 nM
- Activity (SH-SY5Y): Active

Structure (SMILES): Cc1cc(C)c(C(=O)/C=C/c2nc(C)c(C)nc2C)cc1C
- IC50 (Cholinesterase): 37600 nM
- IC50 (Acetylcholinesterase [8]): 2400 nM
- IC50 [9]: 11200 nM
